Assay results from ChEMBL document CHEMBL1759846, “Identification of potent, soluble, and orally active TRPV1 antagonists” (Bioorg Med Chem Lett, 2011).
≈ marks a conversion by molar mass, not a printed value. Calls of active or inactive are those of the source. The rule behind the calls is not given here.

Legend:
[1] = target: Transient receptor potential cation channel subfamily V member 1 (Homo sapiens, UniProt Q8NER1); assay: Antagonist activity at human TRPV1 expressed in CHO-K1 cells assessed as inhibition of capsaicin-induced intracellular Ca2+ influx by FLIPR assay; assay type: functional, cell-based
Transient receptor potential cation channel subfamily V member 1, sequence (Q8NER1 whole entry): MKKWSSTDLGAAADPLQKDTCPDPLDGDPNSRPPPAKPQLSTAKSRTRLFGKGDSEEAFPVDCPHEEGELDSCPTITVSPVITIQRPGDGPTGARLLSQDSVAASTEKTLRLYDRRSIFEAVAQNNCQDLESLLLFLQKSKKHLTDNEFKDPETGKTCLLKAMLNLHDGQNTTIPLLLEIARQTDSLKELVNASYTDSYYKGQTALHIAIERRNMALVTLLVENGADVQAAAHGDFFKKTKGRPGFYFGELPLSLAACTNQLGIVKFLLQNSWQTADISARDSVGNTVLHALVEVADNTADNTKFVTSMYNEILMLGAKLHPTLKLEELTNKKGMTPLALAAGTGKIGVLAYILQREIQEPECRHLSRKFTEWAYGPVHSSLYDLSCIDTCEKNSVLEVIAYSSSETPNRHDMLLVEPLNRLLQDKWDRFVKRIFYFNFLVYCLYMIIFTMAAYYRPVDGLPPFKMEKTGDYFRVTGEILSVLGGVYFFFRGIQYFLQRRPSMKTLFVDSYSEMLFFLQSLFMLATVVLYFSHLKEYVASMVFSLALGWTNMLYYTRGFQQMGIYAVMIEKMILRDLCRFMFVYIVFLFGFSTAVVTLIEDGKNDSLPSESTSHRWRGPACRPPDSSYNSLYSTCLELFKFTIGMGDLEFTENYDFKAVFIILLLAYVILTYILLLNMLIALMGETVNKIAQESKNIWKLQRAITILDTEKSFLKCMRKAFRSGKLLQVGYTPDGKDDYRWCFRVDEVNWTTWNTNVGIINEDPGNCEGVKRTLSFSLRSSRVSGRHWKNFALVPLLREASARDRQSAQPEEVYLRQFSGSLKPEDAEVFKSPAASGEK

[2] = Aqueous solubility of the compound in 0.05 M phosphate buffer at pH 7.4 by shake-flask method; assay type: physicochemical
[3] = Octanol-water partition coefficient, log D of the compound at pH 7.4 by RP-HPLC analysis; assay type: physicochemical
[4] = Intrinsic clearance in human liver microsomes; assay type: ADME, Microsome
[5] = Intrinsic clearance in rat liver microsomes; assay type: ADME, Microsome
[6] = tested on: Hepatocyte; assay: Intrinsic clearance in rat hepatocytes; assay type: ADME, cell-based, Liver
[7] = Plasma protein binding in human; assay type: ADME, cell-free; conditions: read-out: PPB (converted)
[8] = Plasma protein binding in Wistar rat; assay type: ADME, cell-free; conditions: read-out: PPB (converted)
[9] = Clearance in Wistar rat at 10 mg/kg, po and 2 mg/kg, iv; assay type: ADME, organism-based; conditions: in vivo
[10] = Volume of distribution at steady state in Wistar rat at 10 mg/kg, po and 2 mg/kg, iv; assay type: ADME, organism-based; conditions: in vivo, read-out: Vdss
[11] = Half life in Wistar rat plasma at 10 mg/kg, po and 2 mg/kg, iv; assay type: ADME, organism-based
[12] = Cmax in Wistar rat at 10 mg/kg, po; assay type: ADME, organism-based; design: dose 10 mg/kg, route oral; conditions: in vivo
[13] = Tmax in Wistar rat at 10 mg/kg, po; assay type: ADME, organism-based; design: dose 10 mg/kg, route oral; conditions: in vivo
[14] = Oral bioavailability in Wistar rat at 10 mg/kg; assay type: ADME, organism-based; conditions: in vivo
[15] = tested on: Rattus norvegicus; assay: Antiinflammatory activity against capsaicin-induced thermal hyperalgesia in rat assessed as paw withdrawal latency at 3 to 30 umol/kg, po administered 2 hrs before capsaicin challenge measured after 15 mins; assay type: functional, organism-based
[16] = tested on: Rattus norvegicus; assay: Antiinflammatory activity against capsaicin-induced thermal hyperalgesia in po dosed rat assessed as paw withdrawal latency administered 2 hrs before capsaicin challenge measured after 15 mins; assay type: functional

Compound `NC(=O)C1CCN(Cc2c(C(=O)N[C@@H]3CCC[C@H](O)C3)noc2-c2ccc(C(F)(F)F)cc2)CC1` has an IC50 [1] of 3160 nM, a solubility thermodynamic [2] of 30 µg/mL (≈ 60.7 µM) and a logD [3] of 3.6.
`CC(C)N(C)Cc1c(C(=O)N[C@@H]2CCC[C@H](O)C2)noc1-c1ccc(C(F)(F)F)cc1` showed an IC50 [1] of 25.1 nM, a solubility thermodynamic [2] of 80 µg/mL (≈ 182 µM) and a logD [3] of 4.
`CN(Cc1c(C(=O)N[C@@H]2CCC[C@H](O)C2)noc1-c1ccc(C(F)(F)F)cc1)C[C@@H]1CCCO1` showed an IC50 [1] of 5.01 nM, a solubility thermodynamic [2] of 31 µg/mL (≈ 64.4 µM) and a logD [3] of 3.6.
`O=C(N[C@@H]1CCC[C@H](O)C1)c1noc(-c2ccc(C(F)(F)F)cc2)c1CNC1CC1` gave an IC50 [1] of 3.16 nM, a solubility thermodynamic [2] of 21 µg/mL (≈ 49.6 µM) and a microsomal CLint [4] of 17 µL/min/mg. For the same compound, the microsomal CLint [5] was < 12 µL/min/mg, the CL [6] was < 6 µL/min and the fraction unbound [7] was 0.118. For the same compound, the fraction unbound [8] was 0.064 and the logD [3] was 4.5.
`CC(C)CNCc1c(C(=O)N[C@@H]2CCC[C@H](O)C2)noc1-c1ccc(C(F)(F)F)cc1` showed an IC50 [1] of 1 nM, a solubility thermodynamic [2] of 78 µg/mL (≈ 177 µM) and a microsomal CLint [4] of 12 µL/min/mg. The microsomal CLint [5] was 107 µL/min/mg, the CL [6] was 12 µL/min and the fraction unbound [7] was 0.177. For the same compound, the fraction unbound [8] was 0.242, the clearance [9] was 69 mL/min/kg and the Vd [10] was 7.6 L/kg. It also gave a half-life [11] of 4 h, a Cmax [12] of 420 nM and a Tmax [13] of 2 h. For the same compound, the bioavailability [14] was 33%, the Activity [15] was “Active” and the MED [16] was 30 µmol/kg. The logD [3] was 4.3.
In the case of `CN(Cc1c(C(=O)N[C@@H]2CCC[C@H](O)C2)noc1-c1ccc(C(F)(F)F)cc1)C1CCOCC1`, the IC50 [1] is reported as 79.4 nM, the solubility thermodynamic [2] is reported as 82 µg/mL (≈ 170 µM) and the logD [3] is reported as 3.7.
With `O=C(N[C@@H]1CCC[C@H](O)C1)c1noc(-c2ccc(C(F)(F)F)cc2)c1CNCC1CC1` the solubility thermodynamic [2] was 77 µg/mL (≈ 176 µM), the microsomal CLint [4] was 48 µL/min/mg and the microsomal CLint [5] was 55 µL/min/mg. The logD [3] was 3.5.
With `CN(CCS(C)(=O)=O)Cc1c(C(=O)N[C@@H]2CCC[C@H](O)C2)noc1-c1ccc(C(F)(F)F)cc1` the IC50 [1] was 1260 nM, the solubility thermodynamic [2] was 26 µg/mL (≈ 51.6 µM) and the logD [3] was 3.6.
`O=C(N[C@@H]1CCC[C@H](O)C1)c1noc(-c2ccc(C(F)(F)F)cc2)c1CNC1CCC1` showed an IC50 [1] of 15.8 nM, a solubility thermodynamic [2] of 26 µg/mL (≈ 59.4 µM) and a logD [3] of 4.3.
Work on `CC(C)[C@@H](CO)NCc1c(C(=O)N[C@@H]2CCC[C@H](O)C2)noc1-c1ccc(C(F)(F)F)cc1` yielded an IC50 [1] of 10 nM, a solubility thermodynamic [2] of 81 µg/mL (≈ 173 µM) and a logD [3] of 4.1.
With `C[C@H](NCc1c(C(=O)N[C@@H]2CCC[C@H](O)C2)noc1-c1ccc(C(F)(F)F)cc1)C(F)(F)F` the IC50 [1] was 0.158 nM, the solubility thermodynamic [2] was 3.5 µg/mL (≈ 7.3 µM) and the microsomal CLint [4] was 66 µL/min/mg. For the same compound, the microsomal CLint [5] was 49 µL/min/mg, the fraction unbound [7] was 0.048 and the fraction unbound [8] was 0.037. The logD [3] was 5.6.
`CC(C)(CO)CNCc1c(C(=O)N[C@@H]2CCC[C@H](O)C2)noc1-c1ccc(C(F)(F)F)cc1` showed an IC50 [1] of 3.16 nM, a solubility thermodynamic [2] of 89 µg/mL (≈ 190 µM) and a microsomal CLint [4] of 12 µL/min/mg. It also gave a microsomal CLint [5] of 93 µL/min/mg, a CL [6] of 10 µL/min and a fraction unbound [7] of 0.361. The fraction unbound [8] was 0.168 and the logD [3] was 3.5.
`COCCN(C)Cc1c(C(=O)N[C@@H]2CCC[C@H](O)C2)noc1-c1ccc(C(F)(F)F)cc1` showed an IC50 [1] of 7.94 nM, a solubility thermodynamic [2] of 83 µg/mL (≈ 182 µM) and a logD [3] of 4.
For `CC(C)NCc1c(C(=O)N[C@@H]2CCC[C@H](O)C2)noc1-c1ccc(C(F)(F)F)cc1`, the solubility thermodynamic [2] was 82 µg/mL (≈ 193 µM), the microsomal CLint [4] was < 12 µL/min/mg and the microsomal CLint [5] was < 12 µL/min/mg. The CL [6] was < 6 µL/min, the fraction unbound [7] was 0.25 and the fraction unbound [8] was 0.271. It also gave a clearance [9] of 12.5 mL/min/kg, a Vd [10] of 5.9 L/kg and a half-life [11] of 7.9 h. For the same compound, the Cmax [12] was 720 nM, the Tmax [13] was 2 h and the bioavailability [14] was 20%. It also gave a logD [3] of 3.
For `COCCNCc1c(C(=O)N[C@@H]2CCC[C@H](O)C2)noc1-c1ccc(C(F)(F)F)cc1`, the IC50 [1] was 126 nM, the solubility thermodynamic [2] was 80 µg/mL (≈ 181 µM) and the logD [3] was 3.7.
With `CCN(Cc1c(C(=O)N[C@@H]2CCC[C@H](O)C2)noc1-c1ccc(C(F)(F)F)cc1)C(C)C` the IC50 [1] was 25.1 nM, the solubility thermodynamic [2] was 85 µg/mL (≈ 187 µM) and the logD [3] was 4.1.
Compound `CN(Cc1c(C(=O)N[C@@H]2CCC[C@H](O)C2)noc1-c1ccc(C(F)(F)F)cc1)[C@@H]1CCOC1` has an IC50 [1] of 12.6 nM, a solubility thermodynamic [2] of 6.6 µg/mL (≈ 14.1 µM) and a logD [3] of 4.5.
With `O=C(N[C@@H]1CCC[C@H](O)C1)c1noc(-c2ccc(C(F)(F)F)cc2)c1CNCC1CCC1` the IC50 [1] was 1.26 nM, the microsomal CLint [4] was 21 µL/min/mg and the microsomal CLint [5] was 144 µL/min/mg. It also gave a logD [3] of 4.4.
`O=C(N[C@@H]1CCC[C@H](O)C1)c1noc(-c2ccc(C(F)(F)F)cc2)c1CNCC(O)C(F)(F)F` (some centres undefined) gave an IC50 [1] of 10 nM, a solubility thermodynamic [2] of 87 µg/mL (≈ 176 µM) and a logD [3] of 4.7.
`CC(C)[C@H](CO)NCc1c(C(=O)N[C@@H]2CCC[C@H](O)C2)noc1-c1ccc(C(F)(F)F)cc1` showed an IC50 [1] of 2.51 nM, a solubility thermodynamic [2] of 79 µg/mL (≈ 168 µM) and a microsomal CLint [4] of 12 µL/min/mg. The microsomal CLint [5] was 41 µL/min/mg, the fraction unbound [7] was 0.256 and the fraction unbound [8] was 0.116. It also gave a clearance [9] of 13.5 mL/min/kg, a Vd [10] of 3.5 L/kg and a half-life [11] of 4.3 h. The Cmax [12] was 230 nM, the Tmax [13] was 1.5 h and the bioavailability [14] was 4%. It also gave a logD [3] of 4.2.
